Source: ChEMBL document CHEMBL1134130, “Carbonic anhydrase inhibitors: 4-sulfamoyl-benzenecarboxamides and 4-chloro-3-sulfamoyl-benzenecarboxamides with strong topical antiglaucoma properties” (Bioorg Med Chem Lett, 2001)

Columns and labels:
physchem = details: octanol/water
Description: Partition coefficient (logP)

Oryctolagus cuniculus [1] = species: Oryctolagus cuniculus
Description: In vivo intraocular pressure (IOP) lowering at 30 min in normotensive rabbits after treatment with one drop (50 uL) 2% solution of CA inhibitor directly into the eye, at 7.0 pH

Carbonic anhydrase 4 = target: T1, Carbonic anhydrase 4 (Bos taurus, UniProt Q95323)
T1 sequence (Q95323 whole entry): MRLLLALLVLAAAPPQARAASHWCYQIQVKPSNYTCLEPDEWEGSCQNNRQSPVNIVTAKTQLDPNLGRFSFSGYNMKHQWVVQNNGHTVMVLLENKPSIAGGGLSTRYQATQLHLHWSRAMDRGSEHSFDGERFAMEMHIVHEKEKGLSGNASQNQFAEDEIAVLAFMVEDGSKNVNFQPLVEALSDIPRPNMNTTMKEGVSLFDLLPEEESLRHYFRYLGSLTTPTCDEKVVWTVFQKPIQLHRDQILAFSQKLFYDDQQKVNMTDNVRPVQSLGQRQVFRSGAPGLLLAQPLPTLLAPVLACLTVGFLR
Description: Compound was evaluated for binding affinity against bovine carbonic anhydrase IV (bCA IV)

[2] = Compound was evaluated for in vitro corneal permeability in no epithelium; type: ADME, tissue-based, Cornea
Oryctolagus cuniculus [3] = species: Oryctolagus cuniculus; remark: listed apart in the source
Description: In vivo intraocular pressure (IOP) lowering at 90 min in normotensive rabbits after treatment with one drop (50 uL) 2% solution of CA inhibitor directly into the eye, at 7.0 pH

Oryctolagus cuniculus [4] = test: In vivo intraocular pressure (IOP) lowering at 0 min in normotensive rabbits after treatment with one drop (50 uL) 2% solution of CA inhibitor directly into the eye, at 7.0 pH; type: functional
Oryctolagus cuniculus [5] = species: Oryctolagus cuniculus; remark: listed apart in the source
Carbonic anhydrase 2 = Carbonic anhydrase 2 (Homo sapiens, UniProt P00918)
Description: Binding affinity against human carbonic anhydrase II (hCA -II)

Oryctolagus cuniculus [6] = species: Oryctolagus cuniculus; remark: listed apart in the source
Description: In vivo intraocular pressure (IOP) lowering at 120 min in normotensive rabbits after treatment with one drop (50 uL) 2% solution of CA inhibitor directly into the eye, at 7.0 pH

Carbonic anhydrase 1 = Carbonic anhydrase 1 (Homo sapiens, UniProt P00915)
Chain of Carbonic anhydrase 1 (P00915 whole entry): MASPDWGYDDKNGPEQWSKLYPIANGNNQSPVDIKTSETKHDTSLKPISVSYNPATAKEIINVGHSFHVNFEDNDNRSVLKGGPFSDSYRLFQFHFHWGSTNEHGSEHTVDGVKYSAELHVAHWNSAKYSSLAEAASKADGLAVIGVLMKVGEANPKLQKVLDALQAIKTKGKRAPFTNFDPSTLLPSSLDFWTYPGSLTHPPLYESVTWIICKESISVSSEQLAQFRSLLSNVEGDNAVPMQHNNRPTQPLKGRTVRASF
Description: Binding affinity against human carbonic anhydrase I (hCA I)

[7] = Compound was evaluated for in vitro corneal permeability in cornea intact; type: ADME, tissue-based
Oryctolagus cuniculus [8] = test: In vivo intraocular pressure (IOP) lowering at 0 min in normotensive rabbits after treatment with one drop (50 uL) 2% solution of CA inhibitor directly into the eye, at 7.5 pH; type: functional
Oryctolagus cuniculus [9] = test: In vivo intraocular pressure (IOP) lowering at 60 min in normotensive rabbits after treatment with one drop (50 uL) 2% solution of CA inhibitor directly into the eye, at 7.0 pH; type: functional
Oryctolagus cuniculus [10] = test: In vivo intraocular pressure (IOP) lowering at 90 min in normotensive rabbits after treatment with one drop (50 uL) 2% solution of CA inhibitor directly into the eye, at 7.5 pH; type: functional
Oryctolagus cuniculus [11] = species: Oryctolagus cuniculus; remark: listed apart in the source
Description: Fall of in vivo intraocular pressure (IOP) of glaucomatous rabbits at 120 min after treatment with one drop (50 uL) solution of 2% of CA inhibitor directly into eye

Oryctolagus cuniculus [12] = species: Oryctolagus cuniculus; remark: listed apart in the source
Description: Fall of in vivo intraocular pressure (IOP) of glaucomatous rabbits at 90 min after treatment with one drop (50 uL) solution of 2% of CA inhibitor directly into eye

Oryctolagus cuniculus [13] = species: Oryctolagus cuniculus; remark: listed apart in the source
Description: Fall of in vivo intraocular pressure (IOP) of glaucomatous rabbits at 60 min after treatment with one drop (50 uL) solution of 2% of CA inhibitor directly into eye

Oryctolagus cuniculus [14] = test: In vivo intraocular pressure (IOP) lowering at 60 min in normotensive rabbits after treatment with one drop (50 uL) 2% solution of CA inhibitor directly into the eye, at 7.5 pH; type: functional
Oryctolagus cuniculus [15] = test: In vivo intraocular pressure (IOP) lowering at 120 min in normotensive rabbits after treatment with one drop (50 uL) 2% solution of CA inhibitor directly into the eye, at 7.5 pH; type: functional
Oryctolagus cuniculus [16] = species: Oryctolagus cuniculus; remark: listed apart in the source
Description: Fall of in vivo intraocular pressure (IOP) of glaucomatous rabbits at 30 min after treatment with one drop (50 uL) solution of 2% of CA inhibitor directly into eye

Oryctolagus cuniculus [17] = species: Oryctolagus cuniculus; remark: listed apart in the source
Description: Fall of in vivo intraocular pressure (IOP) of glaucomatous rabbits at 0 min after treatment with one drop (50 uL) solution of 2% of CA inhibitor directly into eye

Oryctolagus cuniculus [18] = test: In vivo intraocular pressure (IOP) lowering at 30 min in normotensive rabbits after treatment with one drop (50 uL) 2% solution of CA inhibitor directly into the eye, at 7.5 pH; type: functional

| logP (physchem) | Ki (Carbonic anhydrase 4) [nM] | Km x10e3 [2] [hr-1] | Ki (Carbonic anhydrase 2) [nM] | Ki (Carbonic anhydrase 1) [nM] | Km x10e3 [7] [hr-1] | SMILES | Delta IOP (Oryctolagus cuniculus [1]) [mmHg] | Delta IOP (Oryctolagus cuniculus [3]) [mmHg] | Delta IOP (Oryctolagus cuniculus [6]) [mmHg] | Delta IOP (Oryctolagus cuniculus [8]) [mmHg] | other results |
| --- | --- | --- | --- | --- | --- | --- | --- | --- | --- | --- | --- |
| 1.82 | 16 | 6.4 | 9 | 400 | 3.3 | CC(C)C[C@H](NC(=O)c1ccc(S(N)(=O)=O)cc1)C(=O)NCC(=O)O | 3.3 | 7.8 | 8.7 | – | Delta IOP (Oryctolagus cuniculus [4]): 0 mmHg; Delta IOP (Oryctolagus cuniculus [5]): 5.2 mmHg |
| – | 14 | – | 5 | 38 | – | NS(=O)(=O)c1ccc(C(=O)Nc2nnc(S)s2)cc1 | 7 | 3.1 | 2.1 | 0 | Delta IOP (Oryctolagus cuniculus [9]): 5 mmHg |
| 1.89 | 22 | 7 | 10 | 13 | 3.1 | NS(=O)(=O)c1nnc(NC(=O)c2ccc(Cl)c(S(N)(=O)=O)c2)s1 | – | – | – | 0 | Delta IOP (Oryctolagus cuniculus [10]): 8.3 mmHg; Delta IOP (Oryctolagus cuniculus [11]): 13.3 mmHg; Delta IOP (Oryctolagus cuniculus [12]): 14.2 mmHg; Delta IOP (Oryctolagus cuniculus [13]): 13 mmHg; Delta IOP (Oryctolagus cuniculus [14]): 7.1 mmHg; Delta IOP (Oryctolagus cuniculus [15]): 7.5 mmHg; Delta IOP (Oryctolagus cuniculus [16]): 6.4 mmHg; Delta IOP (Oryctolagus cuniculus [17]): 0 mmHg; Delta IOP (Oryctolagus cuniculus [18]): 2.5 mmHg |
